In ChEMBL document CHEMBL4257541, “Development of subnanomolar-affinity serotonin 5-HT4 receptor ligands based on quinoline structures” (Medchemcomm, 2018):

Target: 5-hydroxytryptamine receptor 4 (Cavia porcellus, UniProt O70528)
Test: Displacement of [3H]-GR113808 from 5-HT4R in Dunkin-Hartley guinea pig straitum nuclear membranes after 30 mins by filter binding method

5-hydroxytryptamine receptor 4, sequence (O70528 whole entry): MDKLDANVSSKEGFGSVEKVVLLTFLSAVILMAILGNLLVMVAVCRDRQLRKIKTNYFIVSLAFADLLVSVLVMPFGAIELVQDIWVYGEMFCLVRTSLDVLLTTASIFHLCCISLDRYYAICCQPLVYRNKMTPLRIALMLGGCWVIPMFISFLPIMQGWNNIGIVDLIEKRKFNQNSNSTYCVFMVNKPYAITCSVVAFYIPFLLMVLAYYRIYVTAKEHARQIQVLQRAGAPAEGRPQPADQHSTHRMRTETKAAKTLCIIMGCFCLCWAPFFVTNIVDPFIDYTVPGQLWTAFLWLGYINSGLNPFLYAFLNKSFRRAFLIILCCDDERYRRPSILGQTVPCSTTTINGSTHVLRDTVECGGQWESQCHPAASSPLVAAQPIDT

| Structure (SMILES) | Ki [nM] |
| --- | --- |
| COc1cc(C(=O)OCCN2CCC(NC(=O)OC(C)(C)C)CC2)c2ccccc2n1 | 304 |
| CCCCN1CCC(CNC(=O)c2cc(OC)c3ccccc3n2)CC1 | 148 |
| CCCCN1CCC(CNC(=O)c2cc(OC)nc3ccccc23)CC1 | > 1000 |
| O=C(NCCN1CCCCC1)c1cc(Cl)c2ccccc2n1 | > 1000 |
| CCCCN1CCC(CNC(=O)c2cc(Cl)c3ccccc3n2)CC1 | 39 |
| COc1cc(C(=O)NCCN2CCCCC2)c2ccccc2n1 | > 1000 |
| O=C(NCCCN1CCCCC1)c1cc(Cl)c2ccccc2n1 | > 1000 |
| CCCCN1CCC(CNC(=O)c2ccc3cccc(O)c3n2)CC1 | 76 |
| COc1cc(C(=O)OCCN2CCCCC2)c2ccccc2n1 | 15 |

Now those with a lower Ki, led by results:

| Ki [nM] | Structure (SMILES) |
| --- | --- |
| 0.86 | CCCCN1CCC(COC(=O)c2cc(Cl)nc3ccccc23)CC1 |
| 0.44 | CCCCN1CCC(COC(=O)c2cc(C3CC3)nc3ccccc23)CC1 |
| 1.5 | CCCCN1CCC(COC(=O)c2ccnc3ccccc23)CC1 |
| 0.62 | CCCCN1CCC(COC(=O)c2cc(OC)nc3ccccc23)CC1 |
| 3.9 | CCCCN1CCC(CCC(=O)c2cc(Cl)c(N)cc2OC)CC1 |
| 8 | COc1cc(C(=O)OCCN2CCC(CO)CC2)c2ccccc2n1 |
